These results are taken from PubChem BioAssay (NCI).

Assay in all cases: growth of human tumour cells (NCI), 48 h
The subject of experiment [1] is A498 renal.
Experiment [2] has as its system EKVX NSCLC.
In experiment [3] the test system is K-562 leukemia.
Experiment [4] deals with NCI-H460 lung.
Experiment [5] concerns SF-295 CNS.
The test system of experiment [6] is SK-MEL-5 melanoma.
Experiment [7] concerns SNB-19 CNS.
For experiment [8], the system named is SR leukemia.
Experiment [9] concerns SW-620 colon.
The test system of experiment [10] is TK-10 renal.

Several values for one entry are separate records, joined by “and”; a condition that tells them apart may be missing. Identical values can stand only once.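 Values below derive from 48-hour exposures of cells grown in 96-well plates, with endpoints linearly interpolated between the two concentrations bracketing the appropriate inhibition level. At the GI50, growth is halved. Definition used: TGI = concentration required for complete inhibition of growth.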

On to `Cc1ccc(S(=O)(=O)N2CCc3ccc(O)c4c3C2Cc2cc(Cl)ccc2-4)cc1` (stereo not given), for which the GI50 in experiment [1] was 234 nM; in [2], 2520 nM; in [3] it was 1160 nM; in experiment [4], 1030 nM; in [5], 1.37 µM; in experiment [6], 1.55 µM. Besides, the GI50 was 1.48 µM in [7], 1060 nM in experiment [8], 1.2 µM in [9] and 2180 nM in experiment [10]. Also, the TGI in experiment [1] was determined as 2.13 µM; in experiment [2] it was 28.8 µM; in experiment [3], 14.8 µM; in experiment [4], 3.74 µM; in experiment [5], 6.12 µM; in experiment [6], 5.1 µM. For the same compound, the TGI in [7] turned out to be 14.8 µM; in experiment [8], 4.26 µM; in experiment [9], 9.35 µM; in experiment [10], 13.1 µM.
Turning to `CO[C@@H]1[C@H](OC(=O)NC(=O)CCl)CC[C@]2(CO2)[C@H]1[C@@]1(C)O[C@@H]1CC=C(C)C`, the GI50 in experiment [1] is 38600 nM; in experiment [2] it was 22400 nM; in experiment [3], 32700 nM; in [4], 755 nM and 2600 nM; in [5] it was 6.62 µM and 4.21 µM; in experiment [6] it was 3.87 µM and 12.3 µM. Also, the GI50 in experiment [7] is 6.01 µM; in [8], 6760 nM; in experiment [9], 5.73 µM and 4.16 µM; in [10], 14100 nM. Moreover, the TGI in experiment [1] is 33.5 µM and 74 µM; in experiment [2], 35.8 µM and 52.4 µM; in experiment [3], 58.5 µM and 129 µM; in experiment [4], 24.2 µM and 49.6 µM; in experiment [5], 18.7 µM and 38 µM; in [6], 24.2 µM and 40.7 µM. The TGI in [7] is 45.4 µM and 69.1 µM; in [8], 39.4 µM; in experiment [9], 51.7 µM and 41.3 µM; in [10] it was 41.3 µM and 41.7 µM.
As to `Cc1nc(NC(=O)CCCN2C(=O)c3cccc4cccc(c34)C2=O)sc1C(=O)Nc1cc(C(=O)NCCCN(C)C)n(C)c1`, the GI50 in experiment [1] was > 100000 nM; in [2], > 100000 nM; in [3] it was > 100000 nM; in experiment [4] it was > 100000 nM; in experiment [5], > 100 µM; in experiment [6] it was > 100 µM. The GI50 in experiment [7] is > 100 µM; in experiment [8] it was > 100000 nM; in [9], > 100 µM; in experiment [10], > 100000 nM. Further, the TGI in experiment [1], in experiment [2], in experiment [3], in [4], in experiment [5] and in experiment [6] was > 100 µM in each case. The TGI in [7], in [8], in [9] and in experiment [10] was > 100 µM throughout.
Consider `CCn1cnc2c(Nc3cccc(Cl)c3)nc(N[C@@H]3CCCC[C@@H]3N)nc21`, for which the GI50 in [1] was 1900 nM; in experiment [2] it was 1600 nM; in [3], 1510 nM; in experiment [4] it was 1230 nM; in [5], 1.55 µM; in [6] it was 1.68 µM. Besides, the GI50 in experiment [7] was 2.07 µM; in experiment [8] it was 699 nM; in experiment [9], 1.78 µM; in experiment [10], 1950 nM. The TGI in [1] turned out to be 3.93 µM; in experiment [2] it was 3.92 µM; in [3] it was 4.18 µM; in [4], 3.7 µM; in [5], 4.51 µM; in experiment [6] it was 3.11 µM. Besides, the TGI in experiment [7] came out at 8.17 µM; in [8] it was 3.94 µM; in experiment [9] it was 5.77 µM; in experiment [10], 5.06 µM.
For the compound `CCOC(=O)c1sc(=S)c2c(C(=O)OCC)c(C(=O)OCC)sc2c1C(=O)OCC`, the GI50 in experiment [1] was 18200 nM; in experiment [2] it was 21500 nM; in experiment [3] it was 10600 nM; in [4] it was 21400 nM; in [5] it was 31.4 µM; in experiment [6], 16.4 µM. For the same compound, the GI50 is 32.2 µM in experiment [7], 15000 nM in experiment [8], 23.7 µM in experiment [9] and 5850 nM in experiment [10]. The TGI in experiment [1] amounted to 33.9 µM; in [2], 43.4 µM; in [3], 25.1 µM; in experiment [4], 51.2 µM; in experiment [5] it was 94.8 µM; in experiment [6], 32.9 µM. The TGI in experiment [7] was > 100 µM; in experiment [8] it was 35.4 µM; in experiment [9], 56.4 µM; in [10] it was 39.4 µM.
In the case of `C=C1C(=O)O[C@H]2[C@H]1CC/C(COC(=O)NCc1c[nH]c3ccc(Cl)cc13)=C\CC[C@@]1(C)O[C@@H]21`, the GI50 was 1810 nM in [1]; 1580 nM in experiment [2]; 416 nM in experiment [3]; 1960 nM in [4]; 1.81 µM in experiment [5]; 1.64 µM in [6]. Further, the GI50 in experiment [7] is 3.72 µM; in experiment [8], 357 nM; in experiment [9], 0.657 µM; in [10], 1610 nM. For the same compound, the TGI stood at 4.68 µM in experiment [1]; 3 µM in [2]; 2.02 µM in experiment [3]; 3.96 µM in [4]; 4.09 µM in experiment [5]; 3.01 µM in [6]. Further, the TGI in experiment [7] was 14.7 µM; in experiment [8] it was 3.88 µM; in experiment [9] it was 2.2 µM; in [10], 2.98 µM.
Regarding `Cc1cc(Cl)cc2c1NC(=O)C2(O)C(C)C(=O)c1ccc(Cl)cc1` (stereo not given), the TGI in experiment [1] is > 91.6 µM; in [2], > 100 µM; in [3], > 100 µM; in [4], > 100 µM; in [5], > 100 µM; in experiment [6] it was > 64.7 µM. Also, the TGI was > 100 µM in experiment [7], > 91.2 µM in [8], > 100 µM in experiment [9] and > 100 µM in experiment [10].
On to `CN(C)CCCc1c[nH]c2ccccc12`, for which the TGI in experiment [1], in experiment [2], in [3], in experiment [4], in [5] and in experiment [6] was > 100 µM throughout. The TGI in experiment [7], in experiment [8], in experiment [9] and in experiment [10] was > 100 µM throughout.
